In patent publication US20220033784A1 (priority 2020, published 2022):
Numbering of substitutions follows the chain as printed. Names may count otherwise. Read-outs that look alike come from different tables or passages of the source.

T1: human intermediate-affinity IL-2 receptor complex, IL-2 CD122/CD132 (β/γ), on cells (human, UniProt P14784 27-551; P31785 23-369)
T1 sequence (looked up) 1: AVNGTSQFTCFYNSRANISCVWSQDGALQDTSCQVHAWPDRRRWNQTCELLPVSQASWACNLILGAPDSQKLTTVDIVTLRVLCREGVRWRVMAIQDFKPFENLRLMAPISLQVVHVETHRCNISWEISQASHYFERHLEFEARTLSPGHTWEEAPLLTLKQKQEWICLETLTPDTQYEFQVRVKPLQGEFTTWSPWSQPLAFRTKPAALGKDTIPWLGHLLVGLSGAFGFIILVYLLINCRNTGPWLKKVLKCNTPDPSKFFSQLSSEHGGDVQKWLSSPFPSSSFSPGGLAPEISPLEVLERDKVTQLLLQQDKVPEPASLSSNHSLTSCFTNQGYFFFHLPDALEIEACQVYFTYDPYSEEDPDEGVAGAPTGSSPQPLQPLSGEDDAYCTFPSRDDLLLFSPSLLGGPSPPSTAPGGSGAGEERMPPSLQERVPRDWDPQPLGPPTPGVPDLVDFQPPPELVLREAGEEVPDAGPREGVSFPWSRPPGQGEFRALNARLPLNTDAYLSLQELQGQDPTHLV
T1 sequence (looked up) 2: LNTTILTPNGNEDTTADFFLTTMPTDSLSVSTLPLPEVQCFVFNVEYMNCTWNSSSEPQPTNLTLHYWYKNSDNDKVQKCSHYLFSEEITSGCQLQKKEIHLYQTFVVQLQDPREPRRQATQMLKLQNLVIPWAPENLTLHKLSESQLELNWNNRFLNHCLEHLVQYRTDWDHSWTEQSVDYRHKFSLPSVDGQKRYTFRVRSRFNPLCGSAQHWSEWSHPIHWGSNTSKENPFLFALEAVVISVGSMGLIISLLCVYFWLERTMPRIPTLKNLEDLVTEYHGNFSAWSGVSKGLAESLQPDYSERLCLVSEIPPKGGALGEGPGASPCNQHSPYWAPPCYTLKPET

T2: human high-affinity IL-2 receptor complex, IL-2 CD25/CD122/CD132 (α/β/γ), on cells (human, UniProt P01589 22-272; P14784 27-551; P31785 23-369)
T2 sequence (looked up) 1: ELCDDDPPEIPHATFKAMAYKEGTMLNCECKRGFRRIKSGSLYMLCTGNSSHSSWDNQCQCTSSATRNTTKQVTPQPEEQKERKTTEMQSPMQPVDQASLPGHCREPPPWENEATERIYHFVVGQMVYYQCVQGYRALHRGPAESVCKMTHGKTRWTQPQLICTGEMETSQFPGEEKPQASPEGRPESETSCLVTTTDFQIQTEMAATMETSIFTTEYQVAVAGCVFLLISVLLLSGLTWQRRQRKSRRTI
T2 sequence (looked up) 2: T1 sequence (looked up) 1
T2 sequence (looked up) 3: T1 sequence (looked up) 2

T3: human IL-2 receptor beta (IL-2Rβ, CD122), purified soluble (human, UniProt P14784 27-240)
T3 construct: also called hILR2β (CD122); human IL-2Rβ
T3 sequence (looked up): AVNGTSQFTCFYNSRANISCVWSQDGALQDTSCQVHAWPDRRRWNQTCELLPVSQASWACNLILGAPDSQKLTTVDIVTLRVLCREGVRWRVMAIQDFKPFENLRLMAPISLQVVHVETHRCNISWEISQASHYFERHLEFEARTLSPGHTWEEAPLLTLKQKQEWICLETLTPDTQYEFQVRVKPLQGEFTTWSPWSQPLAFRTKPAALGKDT

B1: Fc-IL2-R38N:L40T-K43N:Y45T (Fc fusion)
chain: GGGGSGGGGSAPTSSSTKKTQLQLEHLLLDLQMILNGINNYKNPKLTNMTTFNFTMPKKATELKHLQCLEEELKPLEEVLNLAQSKNFHLRPRDLISNINVIVLELKGSETTFMCEYADETATIVEFLNRWITFCQSIISTLT
B2: Fc-IL2-K43N:Y45T-E62N:K64T (Fc fusion)
chain: B1 chain with N48R, T50L, E72N, K74T
B3: Fc-IL2-R38N:L40T-L72N:Q74T (Fc fusion)
chain: B1 chain with N53K, T55Y, L82N, Q84T
B4: Fc-IL2-K43N:Y45T-L72N:Q74T (Fc fusion)
chain: B1 chain with N48R, T50L, L82N, Q84T
B5: Fc-IL2-R38N:L40T-E62N:K64T (Fc fusion)
chain: B1 chain with N53K, T55Y, E72N, K74T
B6: Fc-IL2-K43N:Y45T-E62N:K64T (protein)
chain: APTSSSTKKTQLQLEHLLLDLQMILNGINNYKNPKLTRMLTFNFTMPKKATELKHLQCLEENLTPLEEVLNLAQSKNFHLRPRDLISNINVIVLELKGSETTFMCEYADETATIVEFLNRWITFCQSIISTLT

Columns and labels:
CD8 T cells = test: pSTAT5 flow cytometry in hPBMCs: CD8 T cells; format: cell-based, human; settings: for Selectivity CD8/Treg: larger numbers = greater selectivity for CD8 T cells over Treg cells; for EC50: pSTAT5 MFI in hPBMCs, 20 minutes at 37° C., read-out: EC50 CD8 T cell
Procedure: (§1) In this experiment, the ability of the IL-2 variants to activate CD8 T cells, NK cells, and Treg cells was measured by monitoring relative changes in pSTAT5 in response to treatment of the cells with the IL-2 variants. The IL-2 variants tested in this experiment were each fused to a human IgG Fc domain as described in Example 15. […]; Blood from healthy volunteers was taken and hPBMCs were isolated using a ficoll-paque (GE Healthcare) gradient, washed with PBS to remove platelets, and cleared of red blood cells using ACK lysis buffer (Gibco). Cells were then plated at 1*10e6 cells/well in 90 uL serum-free RPMI 1640 media (Gibco) and allowed to rest for 2-4 hours at 37° C. After resting, cells were treated the IL-2 molecules listed above (10 uL), at the indicated concentrations for 20 minutes at 37° C., and 25 uL 20% PFA was immediately added with gentle pipetting. Cells were then pelleted by centrifugation and aspirated (400 RCF, 7 minutes).
(§2) Phosflow Perm Buffer III (BD Biosciences) was added (200 uL), and the cells were mixed gently by pipetting up and down once to prevent clumping. Cells were then washed twice with 200 uL FACS buffer followed by pelleting by centrifugation (400 RCF, 7 minutes). Cells were in resuspended in 200 uL FACS buffer and incubated with the antibodies in Table D and Table E per standard procedure then suspended in 200 uL FACS buffer for FACS analysis. Data was analyzed using FlowJo v10 software.

NK cells = test: pSTAT5 flow cytometry in hPBMCs: NK cells; format: cell-based, human; settings: for Selectivity NK/Treg: larger numbers = greater selectivity for NK cells over Treg cells; for EC50: pSTAT5 MFI in hPBMCs, 20 minutes at 37° C., read-out: EC50 NK cell
Procedure: as §1, §2

Treg cells = test: pSTAT5 flow cytometry in hPBMCs: Treg cells; format: cell-based, human; settings: pSTAT5 MFI in hPBMCs, 20 minutes at 37° C.; read-out: EC50 Treg cell
Procedure: as §1, §2

[1] = test system: iTreg cells (IL-2 CD25/CD122/CD132 (α/β/γ) receptor complex); test: pSTAT5 ELISA in iTreg cells; format: cell-based; settings: pSTAT5 level 50% of maximum, InstantOne ELISA; read-out: EC50 iTreg cell
Procedure: (§3) The ability of the IL-2 variants to activate HH cells and iTregs was measured by monitoring relative changes in phosphorylated STAT5 (pSTAT5) in response to treatment of the cells with the IL-2 variants. pSTAT5 is known to be a downstream consequence of IL-2 signaling. HH T cells (ATCC CRL-2105) are a line of T cells that lack the alpha chain of the IL-2 receptor complex, but that contain the beta and gamma chains of the IL-2 receptor complex. iTreg cells were prepared from Fresh Leuko Paks obtained from […] Technologies (CAT #70500.1, Donor #D001003551).
(§4) For IL-2 activation, the HH cells and iTreg cells were plated at 2*10e6 cells/well in 50 ul serum-free RPMI 1640 media (Gibco), and allowed to rest at 37° C. After resting, cells were treated the IL-2 molecules listed above, and cells were then pelleted by centrifugation.
(§5) Following treatment with the IL-2 molecules, cell induction status was evaluated by the InstantOne ELISA pSTAT5 detection kit (Invitrogen).

[2] = test system: HH cells (IL-2 CD122/CD132 (β/γ) receptor complex); test: pSTAT5 ELISA in HH cells; format: cell-based; settings: for Selectivity HH/iTreg: higher value = greater selectivity for HH cells; for EC50: pSTAT5 level 50% of maximum, InstantOne ELISA, read-out: EC50 HH T cell
Procedure: as §3, §4, §5

[3] = molecular target: T1, human intermediate-affinity IL-2 …; test: cell-based or functional assay
[4] = molecular target: T2, human high-affinity IL-2 receptor …; test: cell-based or functional assay
[5] = molecular target: T1, human intermediate-affinity IL-2 …; test: cell-based or functional assay; remark: listed apart in the source
[6] = molecular target: T2, human high-affinity IL-2 receptor …; test: cell-based or functional assay; remark: listed apart in the source
[7] = molecular target: T1, human intermediate-affinity IL-2 …; test: cell-based or functional assay; remark: listed apart in the source
[8] = molecular target: T3, human IL-2 receptor beta (IL-2Rβ, …); test: SPR (Biacore 8K, 25 C), CD122 amine-coupled on CM5 chip, Fc-IL2 variant as analyte, 1:1 Langmuir fit

Molecule | Selectivity CD8/Treg (CD8 T cells) | EC50 (CD8 T cells) [nM] | Selectivity NK/Treg (NK cells) | EC50 (NK cells) [nM] | EC50 (Treg cells) [nM] | EC50 [1] [nM] | Selectivity HH/iTreg [2] | EC50 [2] [nM] | other results
Fc-IL2-R38N:L40T | 0.3 | 26.5 | 2.58 | 3.06 | 7.89 | 0.11 | 6.75 × 10^−4 | 163 | 
Fc-IL2-T41N:K43T | 0.07 | 31.2 | 0.7 | 3.05 | 2.13 | 0.01 | 2.69 × 10^−4 | 37.2 | 
Fc-IL2-L72N:Q74T | 0.1 | 22.1 | 0.98 | 2.33 | 2.29 | 0.04 | 8.4 × 10^−4 | 47.6 | 
Fc-IL2-E62N:K64T | 0.09 | 25.5 | 0.62 | 3.65 | 2.26 | 0.02 | 3.84 × 10^−4 | 52.1 | 
Fc-IL2-K35N | 0.00284 | 24.6 | 0.0276 | 2.54 | 0.07 |  |  |  | 
B1 |  |  |  |  |  |  |  |  | EC50 (read off the curve), pSTAT5 MFI in NK cells of hPBMC [3]: ~8 nM; EC50, pSTAT5 induction in iTreg cells (ELISA) [4]: 14.1 nM; EC50, pSTAT5 induction in HH T cells (ELISA) [5]: 218 nM; EC50 (read off the curve), pSTAT5 MFI in Treg cells of hPBMC [6]: ~20 nM; EC50 (read off the curve), pSTAT5 MFI in NK cells of hPBMC [7]: ~8 nM; Kd [8]: 3540 nM; koff [8]: 0.292 s⁻¹; kon [8]: 82600 M⁻¹ s⁻¹
B2 |  |  |  |  |  |  |  |  | EC50, pSTAT5 induction in iTreg cells (ELISA) [4]: 3.07 nM; EC50, pSTAT5 induction in HH T cells (ELISA) [5]: 66.2 nM; EC50 (read off the curve), pSTAT5 MFI in NK cells of hPBMC [7]: ~6 nM
B3 |  |  |  |  |  |  |  |  | EC50 (read off the curve), pSTAT5 MFI in NK cells of hPBMC [3]: ~6 nM; EC50 (read off the curve), pSTAT5 MFI in Treg cells of hPBMC [6]: ~20 nM
B4 |  |  |  |  |  |  |  |  | EC50, pSTAT5 induction in iTreg cells (ELISA) [4]: 4.49 nM; EC50, pSTAT5 induction in HH T cells (ELISA) [5]: 65.2 nM; EC50 (read off the curve), pSTAT5 MFI in NK cells of hPBMC [7]: ~6 nM; Kd [8]: 2620 nM; koff [8]: 0.235 s⁻¹; kon [8]: 89900 M⁻¹ s⁻¹
B5 |  |  |  |  |  |  |  |  | EC50 (read off the curve), pSTAT5 MFI in NK cells of hPBMC [3]: ~6 nM; EC50 (read off the curve), pSTAT5 MFI in Treg cells of hPBMC [6]: ~20 nM
B6 |  |  |  |  |  | 3.07 | 4.64 × 10^−2 | 66.2 | relative selectivity for HH cells vs iTreg cells among the tested molecules ([2]; Table C): greatest relative selectivity
